Experiment: xn = mol fraction of the nth substance listed
Conditions: 100 kPa, Liquid; for electrical conductivity: Alternating current cell with electrodes; for viscosity: Falling or rolling sphere viscometry; for mass density: Vibrating tube method

NC(CO)C(=O)[O-].[Na+] (stereo not drawn) [sodium DL-serine] + O
Conditions | electrical conductivity [S/m] | mass density [kg/m3] | viscosity [mPa·s]
303.15 K, x1 = 0.009 | 2.7 | 1028.3 | 0.9965
303.15 K, x1 = 0.018 | 4.28 | 1060.1 | 1.221
303.15 K, x1 = 0.028 | 5.19 | 1090.9 | 1.552
303.15 K, x1 = 0.037 | 5.57 | 1121.1 | 1.967
303.15 K, x1 = 0.048 | 5.59 | 1150.7 | 2.599
303.15 K, x1 = 0.058 | 5.3 | 1181.9 | –
303.15 K, x1 = 0.059 | – | – | 3.496
308.15 K, x1 = 0.009 | 2.98 | 1026.5 | 0.9018
308.15 K, x1 = 0.018 | 4.73 | 1058.1 | 1.097
308.15 K, x1 = 0.028 | 5.74 | 1088.8 | 1.377
308.15 K, x1 = 0.037 | 6.2 | 1118.7 | 1.739
308.15 K, x1 = 0.048 | 6.27 | 1148.2 | 2.28
308.15 K, x1 = 0.058 | 5.99 | 1179.2 | –
308.15 K, x1 = 0.059 | – | – | 3.027
313.15 K, x1 = 0.009 | 3.27 | 1024.6 | 0.8058
313.15 K, x1 = 0.018 | 5.2 | 1055.9 | 0.9981
313.15 K, x1 = 0.028 | 6.3 | 1086.4 | 1.236
313.15 K, x1 = 0.037 | 6.82 | 1116.3 | 1.563
313.15 K, x1 = 0.048 | 6.96 | 1145.5 | 2.007
313.15 K, x1 = 0.058 | 6.69 | 1176.5 | –
313.15 K, x1 = 0.059 | – | – | 2.661
318.15 K, x1 = 0.009 | 3.57 | 1022.5 | 0.7337
318.15 K, x1 = 0.018 | 5.64 | 1053.6 | 0.8941
318.15 K, x1 = 0.028 | 6.87 | 1084 | 1.116
318.15 K, x1 = 0.037 | 7.49 | 1113.7 | 1.394
318.15 K, x1 = 0.048 | 7.66 | 1142.8 | 1.792
318.15 K, x1 = 0.058 | 7.44 | 1173.7 | –
318.15 K, x1 = 0.059 | – | – | 2.351
323.15 K, x1 = 0.009 | 3.87 | 1020.2 | 0.6788
323.15 K, x1 = 0.018 | 6.12 | 1051.2 | 0.8127
323.15 K, x1 = 0.028 | 7.46 | 1081.5 | 1.012
323.15 K, x1 = 0.037 | 8.17 | 1111.1 | 1.26
323.15 K, x1 = 0.048 | 8.38 | 1140.1 | 1.608
323.15 K, x1 = 0.058 | 8.19 | 1170.8 | –
323.15 K, x1 = 0.059 | – | – | 2.091
328.15 K, x1 = 0.009 | 4.17 | 1017.8 | 0.6217
328.15 K, x1 = 0.018 | 6.59 | 1048.7 | 0.7448
328.15 K, x1 = 0.028 | 8.05 | 1078.9 | 0.9186
328.15 K, x1 = 0.037 | 8.86 | 1108.3 | 1.149
328.15 K, x1 = 0.048 | 9.12 | 1137.3 | 1.452
328.15 K, x1 = 0.058 | 8.97 | 1167.9 | –
328.15 K, x1 = 0.059 | – | – | 1.872
333.15 K, x1 = 0.009 | 4.48 | 1015.3 | 0.575
333.15 K, x1 = 0.018 | 7.06 | 1046 | 0.692
333.15 K, x1 = 0.028 | 8.64 | 1076.1 | 0.8431
333.15 K, x1 = 0.037 | 9.52 | 1105.5 | 1.055
333.15 K, x1 = 0.048 | 9.82 | 1134.4 | 1.321
333.15 K, x1 = 0.058 | 9.74 | 1164.9 | –
333.15 K, x1 = 0.059 | – | – | 1.709
338.15 K, x1 = 0.009 | 4.8 | 1012.7 | 0.537
338.15 K, x1 = 0.018 | 7.53 | 1043.2 | 0.6342
338.15 K, x1 = 0.028 | 9.24 | 1073.3 | 0.7788
338.15 K, x1 = 0.037 | 10.2 | 1102.6 | 0.9608
338.15 K, x1 = 0.048 | 10.6 | 1131.4 | 1.206
338.15 K, x1 = 0.058 | 10.5 | 1161.8 | –
338.15 K, x1 = 0.059 | – | – | 1.531
343.15 K, x1 = 0.009 | 5.1 | 1009.9 | 0.4983
343.15 K, x1 = 0.018 | 8.01 | 1040.4 | 0.5945
343.15 K, x1 = 0.028 | 9.84 | 1070.4 | 0.72
343.15 K, x1 = 0.037 | 10.8 | 1099.6 | 0.8858
343.15 K, x1 = 0.048 | 11.3 | 1128.4 | 1.108
343.15 K, x1 = 0.058 | 11.3 | 1158.7 | –
343.15 K, x1 = 0.059 | – | – | 1.399

— the NIST ThermoML archive (doi:10.1016/j.jct.2014.05.019)
